Test results as given in ChEMBL document CHEMBL1152969, “Verbesinosides A-F, 15,27-cyclooleanane saponins from the American native plant Verbesina virginica” (J Nat Prod, 2009).
The source made the active and inactive calls.

Key:
Type in all cases: functional, organism-based
Candida albicans = experiment: Antimicrobial activity against Candida albicans at 20 ug/mL
Aspergillus fumigatus = experiment: Antimicrobial activity against Aspergillus fumigatus at 20 ug/mL
Cryptococcus neoformans = experiment: Antimicrobial activity against Cryptococcus neoformans at 20 ug/mL
Staphylococcus aureus [1] = experiment: Antimicrobial activity against Staphylococcus aureus at 20 ug/mL
Staphylococcus aureus [2] = experiment: Antimicrobial activity against methicillin-resistant Staphylococcus aureus at 20 ug/mL
Pseudomonas aeruginosa = experiment: Antimicrobial activity against Pseudomonas aeruginosa at 20 ug/mL
[3] = tested on: Mycobacterium intracellulare; experiment: Antimicrobial activity against Mycobacterium intracellular at 20 ug/mL

Measured: Activity

COc1cc(C(=O)O[C@H]2C[C@]3(C(=O)O)C[C@@H]4C[C@]45C(=CCC4[C@@]6(C)CC[C@H](O[C@@H]7O[C@H](CO)[C@@H](O)[C@H](O)[C@H]7O[C@@H]7OC[C@@H](O[C@@H]8OC[C@@H](O)[C@H](O)[C@H]8O)[C@H](O)[C@H]7O)C(C)(C)[C@@H]6CC[C@]45C)[C@@H]3CC2(C)C)cc(OC)c1OC (some centres not stated)
inactive: all assays above
